Results reported in patent US4552882A, “7-(1-Pyrrolyl) derivatives of 1-ethyl-1,4-dihydro-4-oxoquinoline-3-carboxylic acids and 1-ethyl-1,4-dihydro-4-oxo-1,8-naphthyridine-3-carboxylic acids and their use as antimicrobial agents” (Provesan, SA, priority 1983, dated 1985).
≈ marks a conversion by molar mass, not a printed value.

What was measured:
[1] = system: Staphylococcus aureus ATCC 25178; assay: MIC in vitro; type: cell-based; settings: ATCC25178, Dextrose agar, 37° C., 20 hours
Description: (§1) (G. L. Daquet and Y. A. Chabbect, Techniques en bacteriologie (Bacteriological techniques), vol. 3, Flammarion Medecine Sciences, Paris, 1972 and W. B. Hugo and A. D. Rusell, Pharmaceutical Microbiology, Blackwell Scientific Publications, London, (1977)). Antibiotic medium no. 1 (seed agar) (Oxoid CM 327) Tryptone-soya broth (Oxoid CM 129) Ringer's physiological solution 1/4 (oxoid BR 52) Dextrose agar (BBL-11165) 0.1 N NaOH "Staphylococcus aureus" ATCC 25178 Each of the microorganisms is seeded by streaking in tubes of Antibiotic medium No. 1 (seed agar), which are then incubated at 37° C. for 20 hours. Using a culture loop, the cultures are then seeded in tryptone-soyabroth and incubated at 37° C. for 20 hours. The culture obtained is diluted to 1/4 with Ringer's physiological solution, so as to obtain a standardized suspension of 10^7 -10^9 cfu/ml for each organism. Starting from a solution of 1,000 μg/ml in 0.1 N NaOH, each product is diluted in Dextrose agar (previously melted and maintained at 50° C.), with successive dilutions so as to obtain the following concentrations: 64--32--16--8--4--2--1--0.5--0.25--0.125 μg of derivative/ml medium. For each product, the solution of each concentration is subsequently distributed into Petri dishes 10 cm in diameter, with 10 ml of medium per dish and the same number of dishes as microorganisms to be tested. As soon as the medium has cooled, the dishes are seeded with the inoculations using 0.4 ml of inoculation per dish. They are spread with a Driglasky loop and the supernatant is removed. The seeded dishes are incubated at 37° C. for 20 hours.

Sarcina lutea ATCC 9341 = assay: MIC in vitro; type: cell-based; settings: Micrococcus luteus, ATCC9341, Dextrose agar, 37° C., 20 hours
Description: as §1, with “"Sarcina Lutea"” for “"Staphylococcus aureus"”, “9341” for “25178”

[2] = system: Salmonella typhimurius AMES 100; assay: MIC in vitro; type: cell-based, Salmonella typhimurium; settings: AMES100, Dextrose agar, 37° C., 20 hours
Description: (G. L. Daquet and Y. A. Chabbect, Techniques en bacteriologie (Bacteriological techniques), vol. 3, Flammarion Medecine Sciences, Paris, 1972 and W. B. Hugo and A. D. Rusell, Pharmaceutical Microbiology, Blackwell Scientific Publications, London, (1977)).
Antibiotic medium no. 1 (seed agar) (Oxoid CM 327)
Tryptone-soya broth (Oxoid CM 129)
Ringer's physiological solution 1/4 (oxoid BR 52) Dextrose agar (BBL-11165) 0.1 N NaOH
"Salmonella typhimurium" AMES 100
Each of the microorganisms is seeded by streaking in tubes of Antibiotic medium No. 1 (seed agar), which are then incubated at 37° C. for 20 hours. Using a culture loop, the cultures are then seeded in tryptone-soyabroth and incubated at 37° C. for 20 hours. The culture obtained is diluted to 1/4 with Ringer's physiological solution, so as to obtain a standardized suspension of 10^7 -10^9 cfu/ml for each organism.
Starting from a solution of 1,000 μg/ml in 0.1 N NaOH, each product is diluted in Dextrose agar (previously melted and maintained at 50° C.), with successive dilutions so as to obtain the following concentrations: 64--32--16--8--4--2--1--0.5--0.25--0.125 μg of derivative/ml medium.
For each product, the solution of each concentration is subsequently distributed into Petri dishes 10 cm in diameter, with 10 ml of medium per dish and the same number of dishes as microorganisms to be tested.
As soon as the medium has cooled, the dishes are seeded with the inoculations using 0.4 ml of inoculation per dish. They are spread with a Driglasky loop and the supernatant is removed. The seeded dishes are incubated at 37° C. for 20 hours.

in vivo = settings: mouse, ip
Description: To determine this toxicity, C.F.L.P. strain albino mice of both sexes, weighing between 19 and 25 grams, have been used as experimental animals. After an 18 hour fast period with water "ad libitum" the derivatives which are the subjects of the present invention are administered intraperitoneally in 5% suspension in gum arabic. The volume of suspension administered has in all cases been 0.4 ml/20 grams (20 ml/kg), changing the concentration of the suspension according to the dose administered.
One hour after the administration of the derivatives, the animals are supplied with Panlab standard rat-mouse feed. The period of observation of mortality has been 7 days.

Row | SMILES | MIC [1] | MIC (Sarcina lutea ATCC 9341) | MIC [2] | LD50 at 168 h (in vivo)
1 | CCn1cc(C(=O)O)c(=O)c2ccc(-n3cccc3)cc21 [Example 1, 7-(1-pyrrolyl)-1-ethyl-1,4-dihydro-4-oxo-3-quinolinecarboxylic acid] | 1 µg/mL (≈ 3.54 µM) | 16 µg/mL (≈ 56.7 µM) | 4 µg/mL (≈ 14.2 µM) | > 800 mg/kg
2 | CCn1cc(C(=O)O)c(=O)c2cc(F)c(-n3cccc3)cc21 [Example 2, 6-fluoro-7-(1-pyrrolyl)-1-ethyl-1,4-dihydro-4-oxo-3-quinolinecarboxylic acid] | 0.25 µg/mL (≈ 0.833 µM) | 16 µg/mL (≈ 53.3 µM) | 0.5 µg/mL (≈ 1.67 µM) | > 1600 mg/kg
3 | CCn1cc(C(=O)O)c(=O)c2ccc(-n3cccc3)nc21 [Example 3, 1-ethyl-1,4-dihydro-4-oxo-7-(1-pyrrolyl)-1,8-naphthyridine-3-carboxylic acid] | 4 µg/mL (≈ 14.1 µM) | 8 µg/mL (≈ 28.2 µM) | 8 µg/mL (≈ 28.2 µM) | 900 mg/kg
4 | CCn1cc(C(=O)O)c(=O)c2cc(F)c(-n3cccc3)nc21 [Example 4, 1-ethyl-1,4-dihydro-4-oxo-6-fluoro-7-(1-pyrrolyl)-1,8-naphthyridine-3-carboxylic acid] | 0.5 µg/mL (≈ 1.66 µM) | 4 µg/mL (≈ 13.3 µM) | 0.5 µg/mL (≈ 1.66 µM) | > 1000 mg/kg
5 | CCn1cc(C(=O)O)c(=O)c2cnc(N3CCNCC3)nc21 [Pipemidic acid, reference compound] | 64 µg/mL (≈ 211 µM) | > 64 µg/mL | 8 µg/mL (≈ 26.4 µM) | 
